Patent publication US8309129B2, “Nanoparticles comprising a drug, ethylcellulose, and a bile salt” (Bend Research, Inc., priority 2007, dated 2012)
≈ marks a conversion by molar mass, not a printed value. Read-outs that look alike come from different tables or passages of the source.

Columns and labels:
Type in all cases: physicochemical
[1] = Nanoparticle dissolution test of valdecoxib in Hank's buffer; settings: percent of total drug released per minute, 10 μg/mL, 37° C.
Experimental: The dissolution rate of valdecoxib from nanoparticles of Example 12 was measured using the dissolution test as follows. The spray-dried composition of Example 12 were added to Hank's buffer to obtain a valdecoxib concentration of about 1 mgA/mL. The suspension was diluted to 10 μg/mL by adding 0.2 mL suspension to 20 mL buffer. The diluted suspension was placed on a shaker table in a 37° C. chamber, and aliquots were removed at 2, 5, and 10 minutes. The aliquots were centrifuged for 5 minutes at 12,000 rpm using a 30,000-dalton molecular-weight cutoff centrifuge tube filter, and 100 μL of the supernatant was added to 250 μL acetonitrile. The samples were assayed by HPLC. Crystalline drug alone was tested for comparison. The dissolution rate for nanoparticles of the invention was 3.6 times that of crystalline drug alone.

Measurement of free drug = assay: Measurement of free drug
Experimental: In one embodiment, the compositions of the present invention are capable of improving the concentration of dissolved drug in a use environment relative to a control composition consisting essentially of the drug alone without any ethylcellulose or bile salt. In order to determine concentration enhancement in vitro, the amount of “free” drug, or solvated drug is measured. By “free” drug is meant drug which is in the form of dissolved drug or present in micelles, but which is not in the nanoparticles or any solid particles larger than 500 nm, such as precipitate. A composition of the invention provides concentration enhancement if, when administered to an aqueous use environment, it provides a free drug concentration that is at least 1.25-fold the free drug concentration provided by the control composition. Preferably, the free drug concentration provided by the compositions of the invention are at least about 1.5-fold, more preferably at least about 2-fold, and most preferably at least about 3-fold that provided by the control composition.
The amount of free drug provided by a suspension of the nanoparticles of Example 11 was measured using the following procedure. […]
The amount of free drug provided by a suspension of the nanoparticles of Example 12 was measured as follows. […]

[2] = Dynamic light scattering (DLS) of aqueous nanoparticle suspension as formed; settings: Tables 5 and 6; valdecoxib suspension samples
From the text: The nanoparticles are small particles comprising the drug, ethylcellulose, and a bile salt. By “nanoparticles” is meant a plurality of small particles in which the average size of the particles in suspension is less than about 500 nm. By “average size” is meant the effective cumulant diameter as measured by dynamic light scattering, using for example, Brookhaven Instruments' 90Plus particle sizing instrument. By “size” is meant the diameter for spherical particles, or the maximum diameter for non-spherical particles. Preferably, the average size of the nanoparticles is less than 400 nm, more preferably less 300 nm, more preferably less than 150 nm, more preferably less than 100 nm, and most preferably less than 75 nm.
The width of the particle size distribution in suspension is given by the “polydispersity” of the particles, which is defined as the relative variance in the correlation decay rate distribution, as is known by one skilled in the art. […]
The particle size of the nanoparticles in the aqueous suspension was determined using dynamic light scattering (DLS) as follows. […] Dynamic light-scattering was measured using a Brookhaven Instruments (Holtsville, N.Y.) BI-200SM particle size analyzer with a BI-9000AT correlator. The sums of exponentials from the autocorrelation functions were analyzed using CONTIN software to extract size distributions from the samples. […]

Solubility of the drug = assay: Solubility of the drug
[3] = MFD solution, fassgf or other biorelevant, read-out: solubility in MFD solution
[4] = water, read-out: solubility in water

Compound | solubility (Solubility of the drug; [3]) | solubility (Solubility of the drug; [4]) | also measured
Cc1onc(-c2ccccc2)c1-c1ccc(S(N)(=O)=O)cc1 [Crystalline Valdecoxib, valdecoxib] | – | – | Dissolution Rate [1]: 5.0 %/min; Free Drug (Measurement of free drug; Table 5, aqueous suspension prior to spray-drying, 100,000-dalton cutoff filtrate): 11 µg/mL; Free Drug (Measurement of free drug; Table 6, spray-dried composition in dextrose solution, 100,000-dalton cutoff filtrate): 11 µg/mL; Average Particle Size [2]: >1000 nm
Cc1ccc(-c2cc(C(F)(F)F)nn2-c2ccc(S(N)(=O)=O)cc2)cc1 [Drug 1, 4-[5-(4-methylphenyl)-3-(trifluoromethyl)-1H-pyrazol-1-yl]benzenesulfonamide] | ~40 µg/mL (≈ 105 µM) | – | –
Cc1onc(-c2ccccc2)c1-c1ccc(S(N)(=O)=O)cc1 [Drug 2, 4-(5-methyl-3-phenyl-4-isoxazolyl)benzenesulfonamide] | – | ~10 µg/mL (≈ 31.8 µM) | –

More lines, main results first:

solubility (Solubility of the drug; [3]) | solubility (Solubility of the drug; [4]) | Compound | also measured
– | < 0.1 µg/mL | CCOC(=O)N1c2ccc(C(F)(F)F)cc2[C@@H](N(Cc2cc(C(F)(F)F)cc(C(F)(F)F)c2)C(=O)OC)C[C@H]1CC [Drug 3, [2R,4S]4-[(3,5-bis-trifluoromethyl-benzyl)-methoxycarbonyl-amino]-2-ethyl-6-trifluoromethyl-3,4-dihydro-2H-quinoline-1-carboxylic acid ethyl ester] | –
~11 µg/mL (≈ 18.4 µM) | – | CC[C@@H]1C[C@H](N(Cc2cc(C(F)(F)F)cc(C(F)(F)F)c2)C(C)=O)c2cc(C(F)(F)F)ccc2N1C(=O)OC(C)C [Drug 4, [2R,4S]4-[acetyl-(3,5-bis-trifluoromethyl-benzyl)-amino]-2-ethyl-6-trifluoromethyl-3,4-dihydro-2H-quinoline-1-carboxylic acid isopropyl ester] | –
